Results reported in US12559465B2, “Substituted benzotriazinone metabolites of a GPR139 agonist” (TAKEDA PHARMACEUTICAL COMPANY LIMITED, priority 2020, dated 2026).

How the values were obtained:
Type in all cases: in vitro ADME
MRP2 [1] = molecular target: MRP2 (Rattus norvegicus, UniProt Q63120); assay: MRP2 inhibition in membrane vesicles (rat)
BSEP [2] = molecular target: T1, BSEP (Canis lupus familiaris, UniProt B8K1W2); assay: BSEP inhibition in membrane vesicles (dog)
T1 sequence (B8K1W2 1-1325): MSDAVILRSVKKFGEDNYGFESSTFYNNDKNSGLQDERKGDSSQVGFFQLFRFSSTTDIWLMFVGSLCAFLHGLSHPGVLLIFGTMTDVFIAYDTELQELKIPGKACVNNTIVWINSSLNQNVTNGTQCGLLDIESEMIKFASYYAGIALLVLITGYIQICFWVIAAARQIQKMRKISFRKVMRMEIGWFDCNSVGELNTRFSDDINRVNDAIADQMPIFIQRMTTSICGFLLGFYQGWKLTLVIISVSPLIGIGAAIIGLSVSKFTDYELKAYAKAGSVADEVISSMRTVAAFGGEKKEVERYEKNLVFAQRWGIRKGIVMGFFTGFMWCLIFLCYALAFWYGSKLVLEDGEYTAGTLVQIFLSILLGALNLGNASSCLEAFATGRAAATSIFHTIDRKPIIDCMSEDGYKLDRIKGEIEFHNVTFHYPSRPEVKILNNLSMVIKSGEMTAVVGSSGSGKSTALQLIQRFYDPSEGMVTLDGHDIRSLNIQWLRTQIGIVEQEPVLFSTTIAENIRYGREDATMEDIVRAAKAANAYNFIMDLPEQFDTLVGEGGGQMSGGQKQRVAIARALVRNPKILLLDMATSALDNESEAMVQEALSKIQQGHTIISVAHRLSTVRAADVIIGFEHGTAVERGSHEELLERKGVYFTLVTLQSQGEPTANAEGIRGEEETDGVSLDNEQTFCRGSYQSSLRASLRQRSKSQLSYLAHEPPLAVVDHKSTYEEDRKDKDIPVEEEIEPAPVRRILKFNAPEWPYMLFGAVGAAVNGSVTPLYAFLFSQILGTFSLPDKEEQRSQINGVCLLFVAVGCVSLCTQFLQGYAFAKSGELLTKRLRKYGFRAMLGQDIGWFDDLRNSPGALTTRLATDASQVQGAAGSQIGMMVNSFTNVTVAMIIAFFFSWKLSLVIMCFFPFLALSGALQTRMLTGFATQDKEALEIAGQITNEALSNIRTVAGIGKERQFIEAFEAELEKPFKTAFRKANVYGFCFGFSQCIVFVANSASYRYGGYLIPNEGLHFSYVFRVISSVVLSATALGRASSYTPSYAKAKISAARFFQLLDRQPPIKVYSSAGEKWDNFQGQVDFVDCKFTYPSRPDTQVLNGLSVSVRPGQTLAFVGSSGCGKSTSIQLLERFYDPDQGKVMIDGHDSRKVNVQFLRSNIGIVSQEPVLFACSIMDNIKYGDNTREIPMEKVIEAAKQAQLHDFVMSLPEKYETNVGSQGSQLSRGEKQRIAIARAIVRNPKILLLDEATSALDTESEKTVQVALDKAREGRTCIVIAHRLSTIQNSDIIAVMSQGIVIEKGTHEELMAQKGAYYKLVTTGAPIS
Protocol: (§1) Inhibition of BSEP (dog and human) and MRP2 (dog and human) by Compound A and Compound B were tested in membrane vesicles.

BSEP [3] = molecular target: BSEP (Homo sapiens, UniProt O95342); assay: BSEP inhibition in membrane vesicles (human)
Sequence of BSEP (Homo sapiens, UniProt O95342) (O95342 whole entry): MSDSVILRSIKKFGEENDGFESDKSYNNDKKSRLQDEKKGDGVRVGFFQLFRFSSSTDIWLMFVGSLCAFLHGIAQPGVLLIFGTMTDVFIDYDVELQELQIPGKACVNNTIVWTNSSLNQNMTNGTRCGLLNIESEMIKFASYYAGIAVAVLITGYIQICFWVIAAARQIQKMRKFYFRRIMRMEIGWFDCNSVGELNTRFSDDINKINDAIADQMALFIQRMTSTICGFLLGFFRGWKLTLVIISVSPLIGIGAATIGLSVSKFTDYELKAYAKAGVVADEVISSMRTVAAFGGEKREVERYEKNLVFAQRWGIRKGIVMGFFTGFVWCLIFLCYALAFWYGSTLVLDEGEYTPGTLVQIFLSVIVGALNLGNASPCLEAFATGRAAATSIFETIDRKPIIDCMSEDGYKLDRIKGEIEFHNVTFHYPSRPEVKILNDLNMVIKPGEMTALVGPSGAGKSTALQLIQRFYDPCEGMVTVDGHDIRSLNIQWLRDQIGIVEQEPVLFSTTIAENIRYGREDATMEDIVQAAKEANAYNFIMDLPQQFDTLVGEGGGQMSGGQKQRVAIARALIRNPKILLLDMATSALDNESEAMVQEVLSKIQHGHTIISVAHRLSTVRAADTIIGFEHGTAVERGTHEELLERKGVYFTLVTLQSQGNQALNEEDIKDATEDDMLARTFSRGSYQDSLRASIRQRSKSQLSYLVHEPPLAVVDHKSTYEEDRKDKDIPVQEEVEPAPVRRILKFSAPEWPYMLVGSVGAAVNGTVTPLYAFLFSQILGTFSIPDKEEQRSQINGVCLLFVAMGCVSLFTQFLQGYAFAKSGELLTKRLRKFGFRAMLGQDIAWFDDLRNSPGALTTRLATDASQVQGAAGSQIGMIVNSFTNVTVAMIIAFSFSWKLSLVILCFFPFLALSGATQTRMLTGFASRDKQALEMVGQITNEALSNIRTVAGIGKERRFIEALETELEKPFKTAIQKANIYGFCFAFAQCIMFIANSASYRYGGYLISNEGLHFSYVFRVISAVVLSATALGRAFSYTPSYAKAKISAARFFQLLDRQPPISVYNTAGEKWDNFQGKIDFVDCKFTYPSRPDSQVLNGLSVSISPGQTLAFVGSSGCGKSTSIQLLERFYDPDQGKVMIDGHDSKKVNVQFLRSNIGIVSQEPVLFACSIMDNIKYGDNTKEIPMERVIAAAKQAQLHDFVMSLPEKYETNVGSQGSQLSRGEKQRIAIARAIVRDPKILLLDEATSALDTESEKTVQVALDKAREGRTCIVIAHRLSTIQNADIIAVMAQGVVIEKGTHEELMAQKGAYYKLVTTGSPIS
Protocol: as §1

MRP4 = molecular target: T2, MRP4 (Homo sapiens, UniProt O15439); assay: MRP4 inhibition (human)
T2 sequence (O15439 1-1325): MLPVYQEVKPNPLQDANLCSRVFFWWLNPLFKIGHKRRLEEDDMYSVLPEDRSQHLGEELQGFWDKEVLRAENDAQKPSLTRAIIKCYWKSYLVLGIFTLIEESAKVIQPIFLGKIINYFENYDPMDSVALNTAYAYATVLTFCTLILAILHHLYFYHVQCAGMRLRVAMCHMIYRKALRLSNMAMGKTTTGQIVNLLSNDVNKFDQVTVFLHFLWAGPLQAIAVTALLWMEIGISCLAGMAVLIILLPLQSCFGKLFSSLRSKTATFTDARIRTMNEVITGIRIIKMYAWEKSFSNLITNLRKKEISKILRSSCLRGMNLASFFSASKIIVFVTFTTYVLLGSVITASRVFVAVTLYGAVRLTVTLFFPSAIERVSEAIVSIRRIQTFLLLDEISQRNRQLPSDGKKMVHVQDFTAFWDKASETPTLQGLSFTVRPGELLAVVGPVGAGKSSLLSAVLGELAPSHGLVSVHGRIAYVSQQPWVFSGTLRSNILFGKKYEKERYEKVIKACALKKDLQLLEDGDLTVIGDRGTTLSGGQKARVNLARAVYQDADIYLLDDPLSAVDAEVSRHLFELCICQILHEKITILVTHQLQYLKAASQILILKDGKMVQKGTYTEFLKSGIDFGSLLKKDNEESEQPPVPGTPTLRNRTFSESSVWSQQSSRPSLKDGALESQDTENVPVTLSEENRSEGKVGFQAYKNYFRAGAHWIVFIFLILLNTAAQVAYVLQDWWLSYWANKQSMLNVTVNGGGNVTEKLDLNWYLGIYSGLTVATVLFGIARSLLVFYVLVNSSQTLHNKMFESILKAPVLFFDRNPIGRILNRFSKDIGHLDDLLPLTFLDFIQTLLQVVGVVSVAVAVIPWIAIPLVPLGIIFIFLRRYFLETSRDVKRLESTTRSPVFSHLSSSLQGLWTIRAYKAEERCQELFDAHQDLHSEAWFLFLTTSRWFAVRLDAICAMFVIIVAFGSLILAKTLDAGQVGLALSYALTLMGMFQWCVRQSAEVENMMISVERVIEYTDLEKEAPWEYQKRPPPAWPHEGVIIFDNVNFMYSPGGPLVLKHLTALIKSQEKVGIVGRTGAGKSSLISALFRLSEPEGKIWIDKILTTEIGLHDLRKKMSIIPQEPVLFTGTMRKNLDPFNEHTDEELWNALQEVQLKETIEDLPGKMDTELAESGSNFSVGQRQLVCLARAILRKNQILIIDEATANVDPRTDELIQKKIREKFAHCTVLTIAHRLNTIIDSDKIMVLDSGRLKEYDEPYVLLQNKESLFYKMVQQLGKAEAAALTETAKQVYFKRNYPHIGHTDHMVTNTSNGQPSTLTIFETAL

BSEP [4] = molecular target: T3, BSEP (Rattus norvegicus, UniProt O70127); assay: BSEP inhibition in membrane vesicles (rat)
T3 sequence (O70127 1-1321): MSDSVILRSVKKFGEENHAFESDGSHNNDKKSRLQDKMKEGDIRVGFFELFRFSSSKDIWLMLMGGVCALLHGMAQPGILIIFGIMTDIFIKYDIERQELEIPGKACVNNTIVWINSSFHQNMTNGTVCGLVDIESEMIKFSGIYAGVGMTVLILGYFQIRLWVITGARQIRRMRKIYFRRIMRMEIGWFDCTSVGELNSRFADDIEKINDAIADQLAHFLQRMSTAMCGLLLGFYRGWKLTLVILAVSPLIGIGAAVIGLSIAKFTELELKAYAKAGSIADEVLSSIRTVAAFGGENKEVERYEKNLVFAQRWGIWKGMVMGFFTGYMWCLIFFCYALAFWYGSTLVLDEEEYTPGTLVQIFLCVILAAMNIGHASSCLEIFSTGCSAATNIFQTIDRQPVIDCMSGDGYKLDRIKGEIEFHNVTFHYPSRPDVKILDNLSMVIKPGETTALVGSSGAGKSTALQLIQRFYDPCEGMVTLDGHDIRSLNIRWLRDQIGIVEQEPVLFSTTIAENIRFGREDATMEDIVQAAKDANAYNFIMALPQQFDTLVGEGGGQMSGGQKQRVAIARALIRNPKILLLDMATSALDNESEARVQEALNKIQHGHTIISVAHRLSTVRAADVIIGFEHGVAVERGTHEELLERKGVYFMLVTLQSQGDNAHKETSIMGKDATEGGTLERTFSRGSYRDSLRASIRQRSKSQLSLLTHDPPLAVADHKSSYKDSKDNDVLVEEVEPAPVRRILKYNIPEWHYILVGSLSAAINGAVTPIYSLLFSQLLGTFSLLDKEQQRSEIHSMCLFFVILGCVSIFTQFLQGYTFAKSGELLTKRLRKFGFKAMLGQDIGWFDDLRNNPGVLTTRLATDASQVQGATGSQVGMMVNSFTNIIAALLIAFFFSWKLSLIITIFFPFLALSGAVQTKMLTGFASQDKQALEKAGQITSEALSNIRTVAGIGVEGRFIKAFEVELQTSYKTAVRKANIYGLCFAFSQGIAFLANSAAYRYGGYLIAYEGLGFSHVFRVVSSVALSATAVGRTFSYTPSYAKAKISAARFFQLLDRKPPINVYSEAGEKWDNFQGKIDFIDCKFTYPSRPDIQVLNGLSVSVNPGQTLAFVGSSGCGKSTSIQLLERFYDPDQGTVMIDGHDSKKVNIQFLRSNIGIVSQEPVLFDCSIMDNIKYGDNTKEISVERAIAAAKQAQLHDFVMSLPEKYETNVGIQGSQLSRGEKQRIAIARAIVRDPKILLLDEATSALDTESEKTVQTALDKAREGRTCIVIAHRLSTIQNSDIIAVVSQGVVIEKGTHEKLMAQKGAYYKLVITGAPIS

MRP2 [5] = molecular target: MRP2 (Homo sapiens, UniProt Q92887); assay: MRP2 inhibition in membrane vesicles (human)
Sequence of MRP2 (Homo sapiens, UniProt Q92887) (Q92887 whole entry): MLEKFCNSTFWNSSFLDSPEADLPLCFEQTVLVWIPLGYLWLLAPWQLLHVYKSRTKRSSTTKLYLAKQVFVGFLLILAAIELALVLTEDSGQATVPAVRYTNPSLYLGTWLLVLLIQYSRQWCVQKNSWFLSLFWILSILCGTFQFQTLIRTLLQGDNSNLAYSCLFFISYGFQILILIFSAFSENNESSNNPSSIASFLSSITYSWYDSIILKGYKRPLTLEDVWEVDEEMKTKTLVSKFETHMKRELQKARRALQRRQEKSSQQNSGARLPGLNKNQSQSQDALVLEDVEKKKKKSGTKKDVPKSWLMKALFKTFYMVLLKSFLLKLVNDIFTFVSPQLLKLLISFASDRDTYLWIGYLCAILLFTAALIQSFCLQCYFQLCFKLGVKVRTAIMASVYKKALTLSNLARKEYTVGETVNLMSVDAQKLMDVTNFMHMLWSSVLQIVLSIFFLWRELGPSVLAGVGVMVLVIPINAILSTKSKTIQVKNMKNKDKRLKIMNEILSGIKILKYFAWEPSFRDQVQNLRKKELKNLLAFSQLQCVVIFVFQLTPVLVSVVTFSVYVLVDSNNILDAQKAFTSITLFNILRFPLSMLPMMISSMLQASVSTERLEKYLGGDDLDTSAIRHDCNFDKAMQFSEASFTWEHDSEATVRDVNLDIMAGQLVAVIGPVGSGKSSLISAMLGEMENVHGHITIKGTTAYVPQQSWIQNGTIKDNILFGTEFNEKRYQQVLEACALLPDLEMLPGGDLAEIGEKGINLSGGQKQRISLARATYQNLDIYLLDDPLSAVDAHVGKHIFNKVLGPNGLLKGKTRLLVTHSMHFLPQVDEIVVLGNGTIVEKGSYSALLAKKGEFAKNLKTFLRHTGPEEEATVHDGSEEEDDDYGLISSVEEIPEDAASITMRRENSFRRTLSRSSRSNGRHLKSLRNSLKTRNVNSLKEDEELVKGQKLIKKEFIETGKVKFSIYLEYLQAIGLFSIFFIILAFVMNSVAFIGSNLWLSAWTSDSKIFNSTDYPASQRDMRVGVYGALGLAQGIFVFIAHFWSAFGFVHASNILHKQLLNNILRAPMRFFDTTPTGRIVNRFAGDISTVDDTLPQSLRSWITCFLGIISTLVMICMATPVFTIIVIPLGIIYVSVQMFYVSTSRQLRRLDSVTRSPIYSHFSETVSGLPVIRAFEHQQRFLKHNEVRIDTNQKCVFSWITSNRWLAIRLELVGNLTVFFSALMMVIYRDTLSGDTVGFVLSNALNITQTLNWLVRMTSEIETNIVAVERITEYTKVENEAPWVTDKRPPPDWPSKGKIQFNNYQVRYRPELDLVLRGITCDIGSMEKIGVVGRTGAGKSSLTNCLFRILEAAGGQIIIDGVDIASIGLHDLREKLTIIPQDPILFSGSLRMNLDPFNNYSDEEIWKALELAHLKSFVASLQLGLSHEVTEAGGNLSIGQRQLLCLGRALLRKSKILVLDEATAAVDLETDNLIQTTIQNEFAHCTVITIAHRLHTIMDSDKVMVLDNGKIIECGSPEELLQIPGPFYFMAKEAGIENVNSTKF
Protocol: as §1

MRP2 [6] = molecular target: MRP2 (Canis lupus familiaris, UniProt A0A8I3SCV5); assay: MRP2 inhibition in membrane vesicles (dog)
Sequence of MRP2 (Canis lupus familiaris, UniProt A0A8I3SCV5) (A0A8I3SCV5 1-1544): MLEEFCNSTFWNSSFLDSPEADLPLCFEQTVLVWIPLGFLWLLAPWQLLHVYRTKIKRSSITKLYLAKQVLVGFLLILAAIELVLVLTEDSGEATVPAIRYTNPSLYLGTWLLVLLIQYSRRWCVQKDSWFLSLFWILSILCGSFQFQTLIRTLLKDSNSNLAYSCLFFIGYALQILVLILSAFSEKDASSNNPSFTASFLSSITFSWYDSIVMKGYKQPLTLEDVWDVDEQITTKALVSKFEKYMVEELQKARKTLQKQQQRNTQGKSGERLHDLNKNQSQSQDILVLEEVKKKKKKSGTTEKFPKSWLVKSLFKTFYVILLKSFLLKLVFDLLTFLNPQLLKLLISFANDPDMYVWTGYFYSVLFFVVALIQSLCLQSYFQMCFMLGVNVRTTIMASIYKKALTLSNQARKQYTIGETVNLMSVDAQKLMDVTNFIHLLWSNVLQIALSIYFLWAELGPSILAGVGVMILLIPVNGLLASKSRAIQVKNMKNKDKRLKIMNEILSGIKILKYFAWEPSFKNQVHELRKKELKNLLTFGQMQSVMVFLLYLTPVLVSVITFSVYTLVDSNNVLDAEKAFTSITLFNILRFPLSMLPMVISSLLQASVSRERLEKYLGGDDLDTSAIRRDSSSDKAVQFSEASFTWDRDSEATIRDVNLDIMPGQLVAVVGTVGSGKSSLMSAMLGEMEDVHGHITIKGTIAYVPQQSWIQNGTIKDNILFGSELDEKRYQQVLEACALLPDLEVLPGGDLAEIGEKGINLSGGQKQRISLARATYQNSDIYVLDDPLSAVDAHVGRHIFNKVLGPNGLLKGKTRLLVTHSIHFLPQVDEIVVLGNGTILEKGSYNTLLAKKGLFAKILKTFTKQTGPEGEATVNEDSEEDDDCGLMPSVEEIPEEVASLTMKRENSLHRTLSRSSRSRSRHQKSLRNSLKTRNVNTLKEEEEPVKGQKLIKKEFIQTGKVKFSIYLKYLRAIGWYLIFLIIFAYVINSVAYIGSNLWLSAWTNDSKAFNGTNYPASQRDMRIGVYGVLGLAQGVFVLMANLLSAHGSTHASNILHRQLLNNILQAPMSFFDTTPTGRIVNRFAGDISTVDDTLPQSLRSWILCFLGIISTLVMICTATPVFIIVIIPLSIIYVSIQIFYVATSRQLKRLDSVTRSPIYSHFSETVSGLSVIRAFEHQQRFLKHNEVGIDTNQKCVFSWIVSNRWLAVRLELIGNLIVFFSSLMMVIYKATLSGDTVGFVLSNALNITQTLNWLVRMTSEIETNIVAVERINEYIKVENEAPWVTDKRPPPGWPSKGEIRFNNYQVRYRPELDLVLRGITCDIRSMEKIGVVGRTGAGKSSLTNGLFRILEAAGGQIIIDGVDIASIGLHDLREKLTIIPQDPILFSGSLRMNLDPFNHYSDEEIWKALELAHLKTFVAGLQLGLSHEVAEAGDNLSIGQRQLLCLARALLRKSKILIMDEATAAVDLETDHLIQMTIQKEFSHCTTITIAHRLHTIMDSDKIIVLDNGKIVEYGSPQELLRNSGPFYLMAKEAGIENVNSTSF
Protocol: as §1

MRP3 = MRP3 (Homo sapiens, UniProt O15438); assay: MRP3 inhibition (human)

C[C@H](NC(=O)Cn1nnc2ccccc2c1=O)c1ccc(OC(F)(F)F)cc1 [Compound A, (S)-2-(4-oxobenzo[d][1,2,3]triazin-3(4H)-yl)-N-(1-(4-(trifluoromethoxy)phenyl)ethyl)acetamide]
IC50 (MRP2 [1]): > 200 µM
IC50 (BSEP [2]): 72.3 µM
IC50 (BSEP [3]): > 200 µM
IC50 (MRP4): > 200 µM
IC50 (BSEP [4]): > 200 µM
IC50 (MRP2 [5]): > 200 µM
IC50 (MRP2 [6]): > 200 µM
IC50 (MRP3): > 200 µM

C[C@H](NC(=O)Cn1nnc2ccc(O[C@@H]3O[C@H](C(=O)O)[C@@H](O)[C@H](O)[C@H]3O)cc2c1=O)c1ccc(OC(F)(F)F)cc1 [Compound B, (2S,3S,4S,5R,6S)-3,4,5-trihydroxy-6-((4-oxo-3-(2-oxo-2-(((S)-1-(4-(trifluoromethoxy)phenyl)ethyl)amino)ethyl)-3,4-dihydrobenzo[d][1,2,3]triazin-6-yl)oxy)tetrahydro-2H-pyran-2-carboxylic acid]
IC50 (BSEP [2]): > 200 µM
BSEP inhibition (BSEP [2]; result in words): not identified
IC50 (BSEP [3]): > 200 µM
BSEP inhibition (BSEP [3]; result in words): not identified
IC50 (MRP2 [5]): 83 µM
IC50 (MRP2 [6]): 1.8 µM
